From paper PMC3166295 (PLoS ONE, 2011)
Peptide text beside a SMILES is read from it.

Assays:
[1] = test system: 8H5 binding to H5N1 virus Chicken/HongKong/YU22/2002; design: species or system H5N1 avian influenza virus
[2] = test system: 8H5 binding to H5N1 virus Shenzhen/406H/2006; design: species or system H5N1 avian influenza virus
[3] = test system: chicken serum antibody against H5N1 avian influenza virus; format: binding
8H5 mAb [4] = format: binding, murine
8H5 mAb [5] = format: binding, murine; settings: read-out: Kd (dissociation constant for 8H5)

Compound	Blocking Dose Yu22: amount of peptide that blocks binding of 8H5 to the virus by 50% [1] [µg]	Blocking Dose SZ/406H: amount of peptide that blocks binding of 8H5 to the virus by 50% [2] [µg]	reactivity of the ELISA produced with V-1b fused to HBcAg with chicken serum samples [3]	8H5 titer (Tod1.5): phage dilution yielding an OD value of 1.5 (8H5 mAb [4])	Kd (8H5 mAb [5]) [nM]
CC(C)C[C@H](NC(=O)[C@H](C)NC(=O)[C@H](CCC(N)=O)NC(=O)[C@H](CCCCN)NC(=O)[C@@H](NC(=O)[C@H](CC(C)C)NC(=O)[C@H](CCC(=O)O)NC(=O)[C@@H](NC(=O)[C@@H](N)CC(=O)O)[C@@H](C)O)[C@@H](C)O)C(=O)N[C@@H](CCCNC(=N)N)C(=O)N[C@@H](CC(C)C)C(=O)N[C@H](C(=O)O)C(C)C [III-2a] (H-DTELTKQALRLV-OH; N-terminus and C-terminus assumed)	15.19	6.10			
CC[C@H](C)[C@H](NC(=O)[C@@H](NC(=O)[C@H](CC(C)C)NC(=O)[C@@H]1CCCN1C(=O)[C@@H](NC(=O)[C@@H](N)CC(=O)O)[C@@H](C)O)[C@@H](C)O)C(=O)N[C@@H](C)C(=O)NCC(=O)N[C@@H](CC(C)C)C(=O)N[C@@H](CCCCN)C(=O)N[C@@H](CC(C)C)C(=O)N[C@H](C(=O)O)C(C)C [II-1c] (H-DTPLTIAGLKLV-OH; N-terminus and C-terminus assumed)	8.90	2.38			
CC[C@H](C)[C@H](NC(=O)[C@@H](NC(=O)[C@H](CC(C)C)NC(=O)[C@@H]1CCCN1C(=O)[C@@H](NC(=O)[C@@H](N)CCC(=O)O)[C@@H](C)O)[C@@H](C)O)C(=O)N[C@@H](C)C(=O)NCC(=O)N[C@@H](CC(C)C)C(=O)N[C@@H](CCCCN)C(=O)N[C@@H](CC(C)C)C(=O)N[C@@H](CCCCN)C(=O)O [V-1b] (H-ETPLTIAGLKLK-OH; N-terminus and C-terminus assumed)	5.70	2.31	only the H5N1 avian influenza reactive samples were also 8H5 reactive		
CC(C)C[C@H](NC(=O)[C@H](C)NC(=O)[C@H](C)NC(=O)[C@@H](NC(=O)[C@@H](NC(=O)[C@H](CC(C)C)NC(=O)[C@@H]1CCCN1C(=O)[C@@H](NC(=O)[C@@H](N)CC(=O)O)[C@@H](C)O)[C@@H](C)O)[C@@H](C)O)C(=O)N[C@@H](CCCNC(=N)N)C(=O)N[C@@H](CC(C)C)C(=O)N[C@H](C(=O)O)C(C)C [p125] (H-DTPLTTAALRLV-OH; N-terminus and C-terminus assumed)	18.34	11.16		2.96	824
CC[C@H](C)[C@H](NC(=O)[C@@H](NC(=O)[C@H](CC(C)C)NC(=O)[C@H](CCC(=O)O)NC(=O)[C@@H](NC(=O)[C@@H](N)CCC(=O)O)[C@@H](C)O)[C@@H](C)O)C(=O)N[C@@H](C)C(=O)N[C@@H](C)C(=O)N[C@@H](CC(C)C)C(=O)N[C@@H](CCCCN)C(=O)N[C@@H](Cc1ccc(O)cc1)C(=O)N[C@H](C(=O)O)C(C)C [IV-1b] (H-ETELTIAALKYV-OH; N-terminus and C-terminus assumed)	>50	>50			
